Measured values published in paper PMC12073248, “Tyrosinase Inhibitors Among Flora of Lubelskie Region—Application of Bio-Chromatographic Approach and Zebrafish Model in Bioactivity Screening of Plant Material” (Molecules, 2025).
pIC50: −log10 of the molar value.

Molecular target: T1, mushroom tyrosinase (Agaricus bisporus, UniProt C7FF04)
Assay: Bio-chromatographic assay: HPLC-ESI-QTOF-MS/MS of extract with and without tyrosinase
Format: binding
Conditions: chemometric comparison, p < 0.001

T1 sequence (C7FF04 1-392): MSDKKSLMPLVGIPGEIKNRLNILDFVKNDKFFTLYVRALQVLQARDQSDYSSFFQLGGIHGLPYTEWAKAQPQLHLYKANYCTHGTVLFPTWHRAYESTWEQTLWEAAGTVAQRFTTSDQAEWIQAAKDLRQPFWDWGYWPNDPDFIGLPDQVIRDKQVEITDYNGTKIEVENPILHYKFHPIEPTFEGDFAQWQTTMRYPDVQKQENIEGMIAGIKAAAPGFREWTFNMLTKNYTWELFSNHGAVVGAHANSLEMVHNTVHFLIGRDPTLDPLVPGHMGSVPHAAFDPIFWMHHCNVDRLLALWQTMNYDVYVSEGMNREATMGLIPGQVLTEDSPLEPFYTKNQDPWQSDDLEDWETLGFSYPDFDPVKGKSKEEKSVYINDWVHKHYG

Compound	Presence among m/z features differentiating extract before and after tyrosinase treatment
O=C(O)[C@]1(O)C[C@@H](O)[C@@H](O)[C@H](O)C1 [quinic acid, Quinic acid]	present on the list of the differentiating molecular features
O=C(/C=C/c1ccc(O)cc1)O[C@@H](C(=O)O)[C@@H](O)C(=O)O [coumaroyl-tartaric acid, p-Coumaroyltartaric acid]	present on the list of the differentiating molecular features
Syringetin glucoside	visible in the list of differentiating signals
O=C(O)CC(OC(=O)/C=C/c1ccc(O)c(O)c1)C(=O)O (centres unmarked) [caffeoylmalic acid, Caffeoylmalic acid]	present on the list of the differentiating molecular features
Isopropylmalic acid	present on the list of the differentiating molecular features
COc1cc(/C=C/C(=O)O)cc(OC)c1O [sinapic acid, Sinapic acid]	present on the list of the differentiating molecular features

Molecular target: T1, mushroom tyrosinase
Assay: as above
Format: binding
Conditions: aglycons in M. recutita extract; minute content, matrix effect
Procedure: For the identification of single components responsible for interactions with tyrosinase enzymes, a bio-chromatographic assay was performed. For this purpose, two 0.5 mL portions of 1 mg/mL 50% EtOH extract of chamomile dissolved in water each were transferred to an Eppendorf vial of 2 mL. The sample coded as sample A was mixed with 0.5 mL of carbonate buffer prepared by dissolving 120 mg Na2CO3 and 12.5 mg NaHCO3 in 1000 mL of water and later diluted 40 times, whereas sample B was mixed with 0.5 mL of tyrosinase enzyme (500 U/mL) in the same carbonate buffer and diluted 40 times as sample A was.
Both samples A and B were filtered through nylon syringe filters (0.1 µm pore size) into autosampler vials and analyzed using an HPLC-ESI-QTOF-MS/MS instrument. The test was performed in triplicate. During the analysis of recorded data, the obtained chromatograms were subtracted from each other in the Mass Hunter Workstation Program to highlight the changes visible under the influence of the enzyme, and some of the potentially active components were tentatively identified thanks to high-resolution mass measurement, recorded MS/MS fragmentation patterns, and comparison with open mass databases (Metlin, HMDB, Mass Bank). Both injections—with and without the enzyme—were also compared using the Mass Profiler Professional Program (Agilent Technologies, Santa Clara, CA, USA). For this purpose, molecular feature extraction was carried out using the Profinder program v. 10.0.02 (Agilent Technologies, Santa Clara, CA, USA) to obtain a list of m/z values, retention times, and peak areas from the recorded injections, which were exported in profinder archive and detailed CSV formats for subsequent chemometric comparison. The data were filtered based on criteria including a mass tolerance of 10 ppm, retention time variation of 0.3 min, and a minimum peak area of 1% of the highest signal. The chemometric analysis performed directly within the program yielded 802 entities in positive ion mode and 715 in negative ion mode (p < 0.05), in a one-way ANOVA test with asymptotic p-value computation and Benjamini–Hochberg multiple testing correction.

Compound	Inhibitory properties in the bio-chromatographic assay
O=c1cc(-c2ccc(O)c(O)c2)oc2cc(O)cc(O)c12 [luteolin, Luteolin]	did not show inhibitory properties
O=c1cc(-c2ccc(O)cc2)oc2cc(O)cc(O)c12 [apigenin, Apigenin]	did not show inhibitory properties

Same assay, conditions: mass chromatograms with and without enzyme

Compound	Peak height after reaction with tyrosinase
O=c1c(O[C@@H]2OC[C@H](O)[C@H](O)[C@H]2O)c(-c2ccc(O)cc2)oc2cc(O)cc(O)c12 [kaempferol arabinoside, Kaempferol-3-O-alpha-L-arabinoside]	marked decrease in the peak height
O=C(O)CC(=O)OC[C@H]1O[C@@H](Oc2c(-c3ccc(O)cc3)oc3cc(O)cc(O)c3c2=O)[C@H](O)[C@@H](O)[C@@H]1O [kaempferol malonylglucoside, Kaempferol 3-(6″-malonylglucoside)]	marked decrease in the peak height

Same assay, conditions: negative ion mode; negative peak = decrease in intensity on reaction with the enzyme

Compound	Peak in subtracted chromatogram (extract with enzyme minus extract)
Feruloyl hexose	Large negative peaks
O=C(O)CC(O)C(=O)O (centres unmarked) [malic acid, Malic acid]	Large negative peaks
O=C(O)CC(O)(CC(=O)O)C(=O)O [citric acid, Citric acid]	Large negative peaks
O=C(O)[C@H](O)[C@@H](O)[C@H](O)[C@H](O)CO [gluconic acid, Gluconic acid]	Large negative peaks
Protocatechuoylglucose [protocatechuoyl-glucose]	visible negative peak
Feruloyl-glucose isomers	leading negative peak

Molecular target: T1, mushroom tyrosinase
Assay: Spectrophotometric tyrosinase inhibition assay with L-DOPA as substrate
Format: biochemical
Conditions: standards 0.015 to 5.0 mg/mL
Procedure: The inhibitory properties of the extracts against tyrosinase were evaluated using in an in vitro assay with the mushroom tyrosinase enzyme and L-DOPA as a substrate (Sigma Aldrich, St. Louis, MO, USA). The assay was performed based on the method by Uchida and colleagues [43]. Briefly, 100 µL of 100 mM phosphate buffer (pH 6.8) and 20 µL of the diluted extracts of studied plants (1 mg/mL solution in DMSO) were pipetted into a 96 well microwell. Afterwards, 20 μL of the mushroom tyrosinase (500 U/mL) dissolved in phosphate buffer (pH 6.8) was added to each microwell and the mixture was pre-incubated for 10 min at room temperature. After incubation, 80 µL of 8 mM L-DOPA was added and the reaction was initiated and sustained at 25 °C. After 20 min, the absorbance was measured at 450 nm using a microplate reader Promega GloMax Explorer GM 3510 (Madison, MO, USA). The control sample (with 100% tyrosinase activity) contained the appropriate volume of the solvent (100 µL buffer plus 20 µL DMSO) instead of the extract. In both assays, the dopachrome formation was measured spectrophotometrically at λ = 450 nm, using a Promega microplate reader. The obtained values were corrected by the absorbance value of the background that was measured for the extracts without the mushroom tyrosinase and L-DOPA. Each sample was analyzed in three independent repetitions. […]

Compound	pIC50
COc1cc(/C=C/C(=O)O)ccc1O [ferulic acid, Ferulic acid]	6.32
